The results in this text go back to BindingDB's records for doi:10.1016/0960-894X(96)00091-1 (1996).

The experiment addresses Endothelin-converting enzyme 1 (Sus scrofa). Kind of experiment: Compound was evaluated for inhibition of Endothelin-converting enzyme 1 partially purified from porcine primary aortic endothelial cells.

In the case of `O=C(Cc1ccc(OCc2cccnc2)cc1)N[C@@H](CS)Cc1c[nH]c2ccccc12` [N-[(R)-2-(1H-Indol-3-yl)-1-mercaptomethyl-ethyl]-2-[4-(pyridin-3-ylmethoxy)-phenyl]-acetamide], the IC50 is 7.7 µM. This lies in the single-digit micromolar range.
In turn, `O=C(N[C@@H](CS)Cc1c[nH]c2ccccc12)C1CCN(C(=O)Cc2ccc(-c3ccccc3)cc2)CC1` [1-(2-Biphenyl-4-yl-acetyl)-piperidine-4-carboxylic acid [(R)-2-(1H-indol-3-yl)-1-mercaptomethyl-ethyl]-amide] displayed an IC50 of 6.5 µM.
In turn, `O=C(CCC(C(=O)O)c1ccccc1)N[C@@H](CS)Cc1c[nH]c2ccccc12` (stereo partly drawn) [4-[(R)-2-(1H-Indol-3-yl)-1-mercaptomethyl-ethylcarbamoyl]-2-phenyl-butyric acid] showed an IC50 of 5.4 µM. The IC50 values of the last two compounds are within 1.5-fold of each other.
The value for `O=C(Cc1ccc(-c2ccccc2)cc1)N[C@@H](CS)Cc1cccnc1` [2-Biphenyl-4-yl-N-((R)-1-mercaptomethyl-2-pyridin-3-yl-ethyl)-acetamide] was 5.2 µM.
`O=C(N[C@@H](CS)Cc1c[nH]c2ccccc12)c1cccs1` [Thiophene-2-carboxylic acid [(R)-2-(1H-indol-3-yl)-1-mercaptomethyl-ethyl]-amide] gave an IC50 of 5.2 µM.

Usually IC50 stands for the concentration that inhibits the measured activity by half.
